Columns and labels:
Lxrα = biological target: T1, Lxrα (Homo sapiens, UniProt Q13133); test: Lxrα luciferase reporter assay in SN4741 neural cells; assay type: cell-based, mouse; settings: 10 μM, 24 h
T1 construct: expressed in transfected cells; host or cells: SN4741 mouse neuronal cell line
T1 sequence (Q13133 1-447): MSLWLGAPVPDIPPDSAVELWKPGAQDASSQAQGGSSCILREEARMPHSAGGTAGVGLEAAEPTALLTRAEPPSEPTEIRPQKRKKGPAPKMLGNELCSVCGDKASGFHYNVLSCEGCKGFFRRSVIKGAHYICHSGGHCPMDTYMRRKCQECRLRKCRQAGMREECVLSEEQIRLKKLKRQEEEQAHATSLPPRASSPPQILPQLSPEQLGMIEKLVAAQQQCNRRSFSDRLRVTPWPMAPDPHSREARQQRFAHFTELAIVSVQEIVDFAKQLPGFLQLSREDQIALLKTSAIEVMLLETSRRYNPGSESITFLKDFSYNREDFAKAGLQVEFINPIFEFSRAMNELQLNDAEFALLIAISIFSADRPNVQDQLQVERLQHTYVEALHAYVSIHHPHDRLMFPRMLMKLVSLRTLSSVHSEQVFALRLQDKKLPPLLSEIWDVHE
Excerpt: (§1) Luciferase Reporter Assay.

[1] = tested on: Islet1+ oculomotor neurons; test: Islet1+ cells in mouse E11.5 brain primary cultures; assay type: cell-based; settings: for Number of Islet1+ cells / Concentration giving significant difference from vehicle in Islet1+ cells: wild type cultures; for Concentration giving significant difference from vehicle in Islet1+ cells: p<0.05
Method: (§2) Primary Brain Cultures. Brains from E11.5 mice were manually dissected, plated on poly-D-lysine (150,000 cells/cm^2) and grown in serum-free N2 media consisting of 1:1 mixture of F12 and DMEM with 10 ng/mL insulin, 100 μg/mL apo-transferrin, 100 μM putrescine, 20 nM progesterone, 30 nM selenium, 6 mg/mL glucose, and 1 mg/mL BSA. Cells were treated for 3 days in vitro (DIV) with the compounds of interest, fixed with 4% PFA and processed for staining using appropriate antibodies.
(§3) Antibodies and Detection Procedures. Cells were fixed in 4% PFA, washed in PBS and blocked in 5% normal goat serum/PBS for 1 h at room temperature. Primary antibodies were diluted in PBS (pH 7.4), 0.3% Triton X-100, 1% BSA and incubations were carried out overnight at +4° C. or at room temperature for 2 h. The antibodies used were anti-:BrdU (1:400; Abeam), Islet-1 (1:100: Developmental Studies Hybridoma Bank), cleaved caspase-3 (Aspt 75) (1:100; Cell Signaling Technology), tyrosine hydroxylase (TH; 1:1000; Pel-Freeze) GABA (1:1,000; Sigma), Bm3a (1:250; Millipore), Nkx6.1 (1:200; Novus Biologicals), choline acetyltransferase (ChAT; 1:500; Millipore) and appropriate secondary antibodies (Jackson ImmunoResearch or Alexa). Cells positive for the corresponding marker were counted directly at the microscope at a magnification of 20×. Cells were counted in every well, in eight consecutive fields (going from one side of the well to the other, passing through the center), in three different wells per experiment and in three different experiments per condition. Random pictures of the wells were taken for every condition to document the result, and representative pictures were subsequently selected to represent the quantitative data. Photos were acquired with a Zeiss Axioplan microscope and a Hamamatsu camera C4742-95 using the Openlab software.

active caspase 3+ cells = test: Active caspase 3+ cells in mouse E11.5 brain primary cultures; assay type: cell-based; settings: for Number of active caspase-3+ cells: wt cultures, 3β,7α-diHCA, 3βH,7O-CA, 25-HC at 10 μM, toxic acids at low concentrations
Method: as §2, §3

Lxrβ = biological target: T2, Lxrβ (Homo sapiens, UniProt P55055); test: Lxrβ luciferase reporter assay in SN4741 neural cells; assay type: cell-based, mouse; settings: for Lxrβ activation, luciferase activity (fold activation): SN4741 cells, 10 μM, 24 h
T2 construct: expressed in transfected cells; host or cells: SN4741 mouse neuronal cell line
T2 sequence (P55055 1-460): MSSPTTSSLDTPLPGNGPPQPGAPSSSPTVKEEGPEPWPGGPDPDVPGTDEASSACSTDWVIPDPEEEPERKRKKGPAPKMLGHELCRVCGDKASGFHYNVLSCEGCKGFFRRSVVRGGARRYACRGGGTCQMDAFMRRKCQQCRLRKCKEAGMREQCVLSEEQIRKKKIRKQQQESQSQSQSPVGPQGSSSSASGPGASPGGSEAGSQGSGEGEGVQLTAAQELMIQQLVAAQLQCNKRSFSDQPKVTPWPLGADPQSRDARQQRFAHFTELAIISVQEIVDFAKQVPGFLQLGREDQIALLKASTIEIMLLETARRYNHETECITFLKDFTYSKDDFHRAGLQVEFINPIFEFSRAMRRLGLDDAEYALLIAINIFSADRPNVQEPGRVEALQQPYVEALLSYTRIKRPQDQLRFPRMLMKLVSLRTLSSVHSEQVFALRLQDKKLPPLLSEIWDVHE
Excerpt: as §1

abca1 = abca1 expression in zebrafish embryos; assay type: in vivo; settings: 10 μM
Method: (§4) Quantitative PCR, Total RNA was extracted from SN4741. cells and zebrafish treated with the compounds of interest using the RNeasy Mini Kit (Qiagen), 1 μg was treated with RQ1 RNase-free DNase (Promega) and reverse transcribed using SuperScript II Reverse Transcriptase (invitrogen) and random primers (invitrogen) (RT+reaction). Parallel reactions without reverse transcriptase enzyme were done as a control (RT−reaction), and Sybergreen real-time quantitative PCR assays were performed. Expression levels were obtained by normalization with the Value of the housekeeping gene encoding actin obtained for every sample in parallel assays.
Zebrafish Strain and Maintenance Zebrafish were raised on a 14/10 h day/night cycle and were kept at 28.5 ° C. Islet-1:GFP transgenic embryos were obtained via natural spawning and staged in hours or days post fertilization (hpf and dpt) according to Kimmel et al). Embryos older than 24 hpf were treated with 0.03% phenylthiourea (PTU) to inhibit pigmentation. […] Immunocytochemistry was performed using an anti-GFP antibody and fluorescence was viewed and photographed using a Zeiss Axioplan compound microscope and a Zeiss Axiocam digital camera.

Islet-1 = Islet-1 expression in Tg[Isl1:GFP] zebrafish embryos; assay type: in vivo; settings: 10 μM
Method: as §4
(§5) Zebrafish Strain and Maintenance Zebrafish were raised on a 14/10 h day/night cycle and were kept at 28.5 ° C. Islet-1:GFP transgenic embryos were obtained via natural spawning and staged in hours or days post fertilization (hpf and dpt) according to Kimmel et al). Embryos older than 24 hpf were treated with 0.03% phenylthiourea (PTU) to inhibit pigmentation. MO injections were performed using splice site specific zebrafish lxi MO MO injected embryos were immediately dechorionated and transferred to a 96 well plate and exposed to dimethyl sulfoxide (DMSO) treated or ligand treated medium. Compound Exposure. Islet-1:GFP embryos were collected by natural mating and immediately (at 1 cell stage) dechorionated and transferred to a 96 well plate. Each of the compounds tested were obtained as 10 mM stock and diluted in embryo medium to a final concentration of 10 μM, and 200 μL was added to each well. DMSO or propan-2-ol treated embryo medium was taken as control. Ligand solutions were replaced every 12 h with fresh ligand solution prepared in PTU treated embryo medium. Embryos were collected at 48 hpf, fixed for 4 h at room temperature with 4% paraformaldehyde and then washed and kept in PBST. Immunocytochemistry was performed using an anti-GFP antibody and fluorescence was viewed and photographed using a Zeiss Axioplan compound microscope and a Zeiss Axiocam digital camera.

[2] = tested on: TH+ dopamine neurons, GABAergic or red nucleus neurons; Nkx6.1+ cells; test: Other cell types in mouse E11.5 brain primary cultures; assay type: cell-based; settings: data not shown
Method: as §2, §3

zebrafish embryos = test: Survival of transgenic zebrafish embryos on compound exposure; assay type: in vivo
Method: as §5

[3] = tested on: Abca1, Abcg1 and Srebf1 transcript levels; test: Quantitative PCR of Lxr target genes in SN4741 cells; assay type: cell-based, mouse; settings: 3 h
Method: as §4

Lxrβ-LBD = biological target: T3, Lxrβ-LBD (Homo sapiens, UniProt P55055); test: Lanthascreen TR-FRET Lxrβ coactivator assay; assay type: binding
T3 construct: the Lxrβ-LBD tagged with glutathione-S-transferase (GST); purchased Invitrogen
T3 sequence (P55055 222-460 limits assumed): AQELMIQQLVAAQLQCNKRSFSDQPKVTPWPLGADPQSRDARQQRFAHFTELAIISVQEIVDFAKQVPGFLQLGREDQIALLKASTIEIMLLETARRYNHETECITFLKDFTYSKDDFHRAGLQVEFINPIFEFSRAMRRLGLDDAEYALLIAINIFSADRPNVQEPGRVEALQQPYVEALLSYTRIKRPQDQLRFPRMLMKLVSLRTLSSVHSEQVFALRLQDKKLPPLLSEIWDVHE
Excerpt: Lxrβ Ligand Binding Assay. For Lxrβ ligand binding activity measurement, the applicants used the Lanthascreen™ TR-FRET Lxrβ Coactivator Assay (Invitrogen). The assay uses a terbium (Tb)-labeled anti-GST antibody, a fluorescein-labeled coactivator peptide and the Lxrβ-LBD tagged with glutathione-S-transferase (GST). Binding of the agonist/ligand to Lxrβ-LBD causes a conformational change that result in an increase in the affinity of the Lxrβ for the coactivator peptide. The close proximity of the fluorescently labeled coactivator peptide to the Tb-labeled antibody causes an increase in the TR-FRET signal intensity. The TR-FRET ratio of 520/495 was calculated using a Victor multi label reader with an excitation wavelength of 340 nm and emission wavelengths of 520 nm and 495 nm, The activational capacity of potential ligands was tested in a […] polypropylene plate, following the manufacturer's protocol.

CC(CCC[C@@H](C)[C@H]1CC[C@H]2[C@@H]3C(=O)C=C4C[C@@H](O)CC[C@]4(C)[C@H]3CC[C@]12C)C(=O)O (stereo partly drawn) [3βH,7O-CA, 3β-hydroxy-7-oxocholest-5-en-26-oic acid]
Lxrα activation, luciferase activity (fold activation) (Lxrα): have the ability to activate both Lxrs
Effect on Islet1+ cells in Lxrα−/−β−/− cultures ([1]; cultures from Lxrα−/−β−/− mice): eliminated
Number of Islet1+ cells [1]: increased the number of Islet1+ oculomotor cells in the cultures
Concentration giving significant difference from vehicle in Islet1+ cells [1]: ≥ 10 µM
Effect on Islet1+ cells with Lxr antagonist GGPP ([1]; wt cultures, 10 μM GGPP): blocked by the Lxr antagonist GGPP
Number of active caspase-3+ cells (active caspase 3+ cells): did not affect the number of active caspase-3+ cells
Lxrβ activation, luciferase activity (fold activation) (Lxrβ): have the ability to activate both Lxrs
abca1 expression (abca1): enhanced expression of abca1
Islet-1 mRNA and protein level (qPCR, western blot) (Islet-1): accompanied by an increase in the level of Islet-1 mRNA and protein
Islet-GFP expression (Islet-1; embryos 48 hpf): increased Islet-GFP expression
Number of Islet1+ cells in cranial nerves (III, IV, V, VII, X) (Islet-1; embryos 48 hpf): had no significant effect on the number of Islet1+cells
Islet-GFP levels after lxr morpholino injection (Islet-1; lxr MO vs control scrambled MO): lxr MO injections abolished the in vivo increase in Islet-GFP levels
Number of other midbrain neurons (TH+ dopamine, GABAergic, red nucleus) [2]: did not affect the number of other midbrain neurons

CC(CCC[C@@H](C)[C@H]1CC[C@H]2[C@@H]3[C@@H](O)C=C4C[C@@H](O)CC[C@]4(C)[C@H]3CC[C@]12C)C(=O)O (stereo partly drawn) [3β,7β-diHCA, 3β,7β-dihydroxycholest-5-en-26-oic acid]
Lxrα activation, luciferase activity (fold activation) (Lxrα): have the ability to activate both Lxrs
Number of Islet1+ cells [1]: caused the loss of Islet1+ cells in the cultures
Concentration giving significant difference from vehicle in Islet1+ cells [1]: ≥ 2 µM
Surviving cells in cultures (active caspase 3+ cells; 10 μM): no surviving cells were detected
Concentration at which toxicity is initiated (active caspase 3+ cells; mouse, primary brain cultures from E11.5 mouse embryos, 3 days): 1000 nM
Concentration giving significant difference from vehicle in active caspase 3+ cells (active caspase 3+ cells; p<0.05): ≥ 2 µM
Number of active caspase-3+ cells (active caspase 3+ cells): increased the number of active caspase-3+ cells
Lxr activational capacity in combination with 22R-HC (Lxrβ; 10 μM acid + 10 μM 22R-HC): No additive effect was observed
Lxrβ activation, luciferase activity (fold activation) (Lxrβ): have the ability to activate both Lxrs
Toxic effect on survival of the fish (zebrafish embryos): had a deleterious toxic effect which impaired the survival of the fish
Abca1, Abcg1 and Srebf1 transcript levels [3]: induced transcription, but to a lesser extent
Competition with the effect of 3β,7α-diHCA in TR-FRET (Lxrβ-LBD; 3β,7α-diHCA at 10 μM plus increasing concentrations of competitor): the effect of 3β,7α-diHCA was reduced to that of the latter acids
Competitor concentration giving significant difference from 10 μM 3β,7α-diHCA alone in TR-FRET (Lxrβ-LBD; p<0.05 vs 10 μM 3β,7α-diHCA): ≥ 2
